Values quoted from earlier work, collected in patent US20100233107A1, “MEDICATED TONING LOTION” (priority 2009, published 2010).

solubility in water: approximately 0.2 % by weight
volume of water in which one gram dissolves (one gram of salicylic acid): 460 mL
SMILES: O=C(O)c1ccccc1O [salicylic acid]
